From ChEMBL document CHEMBL1130913, “Synthesis and antibacterial in vitro activity of novel analogues of nematophin” (1998)
In brackets after ≈: the same amount, converted by molar mass.

Experiments:
Staphylococcus aureus [1] = assay: In vitro inhibitory activity in iso sensitest agar against Staphylococcus aureus strain ATCC 25923; type: functional
[2] = test system: Staphylococcus intermedius; assay: In vitro inhibitory activity in iso sensitest agar against Staphylococcus intermedius strain ATCC 9503; type: functional
Staphylococcus aureus [3] = assay: In vitro inhibitory activity in iso sensitest agar against Staphylococcus aureus strain ATCC 6538; type: functional
[4] = test system: Staphylococcus intermedius; assay: In vitro inhibitory activity in iso sensitest agar against Staphylococcus intermedius strain ATCC 29663; type: functional
Staphylococcus hyicus [5] = assay: In vitro inhibitory activity in iso sensitest agar against Staphylococcus hyicus strain ATCC 9622; type: functional
Staphylococcus aureus [6] = assay: In vitro inhibitory activity in iso sensitest agar against Staphylococcus aureus strain ATCC 29213; type: functional
Staphylococcus hyicus [7] = assay: In vitro inhibitory activity in iso sensitest agar against Staphylococcus hyicus strain ATCC 9621; type: functional
Staphylococcus hyicus [8] = assay: In vitro inhibitory activity in iso sensitest agar against Staphylococcus hyicus strain ATCC 9621 in addition with 0.5%blood; type: functional
Staphylococcus hyicus [9] = assay: In vitro inhibitory activity in iso sensitest agar against Staphylococcus hyicus strain ATCC 9622 in addition with 5%blood; type: functional
Staphylococcus hyicus [10] = assay: In vitro inhibitory activity in iso sensitest agar against Staphylococcus hyicus strain ATCC 9622 in addition with 5%serum; type: functional
Staphylococcus hyicus [11] = assay: In vitro inhibitory activity in iso sensitest agar against Staphylococcus hyicus strain ATCC 9622 in addition with 0.5%serum; type: functional
Staphylococcus aureus [12] = assay: In vitro inhibitory activity in iso sensitest agar against Staphylococcus aureus strain ATCC 29213 in addition with 5%serum; type: functional
Staphylococcus hyicus [13] = assay: In vitro inhibitory activity in iso sensitest agar against Staphylococcus hyicus strain ATCC 9621 in addition with 5%blood; type: functional
[14] = test system: Staphylococcus intermedius; assay: In vitro inhibitory activity in iso sensitest agar against Staphylococcus intermedius strain ATCC 9503 in addition with 5%blood; type: functional
[15] = test system: Staphylococcus intermedius; assay: In vitro inhibitory activity in iso sensitest agar against Staphylococcus intermedius strain ATCC 9503 in addition with 0.5%serum; type: functional
Staphylococcus hyicus [16] = assay: In vitro inhibitory activity in iso sensitest agar against Staphylococcus hyicus strain ATCC 9621 in addition with 5%serum; type: functional
Staphylococcus aureus [17] = assay: In vitro inhibitory activity in iso sensitest agar against Staphylococcus aureus strain ATCC 6538 in addition with 5%serum; type: functional
Staphylococcus aureus [18] = assay: In vitro inhibitory activity in iso sensitest agar against Staphylococcus aureus strain ATCC 6538 in addition with 5%blood; type: functional
Staphylococcus hyicus [19] = assay: In vitro inhibitory activity in iso sensitest agar against Staphylococcus hyicus strain ATCC 9621 in addition with 0.5%serum; type: functional
[20] = test system: Staphylococcus intermedius; assay: In vitro inhibitory activity in iso sensitest agar against Staphylococcus intermedius strain ATCC 29663 in addition with 5%serum; type: functional
Staphylococcus aureus [21] = assay: In vitro inhibitory activity in iso sensitest agar against Staphylococcus aureus strain ATCC 6538 in addition with 0.5%serum; type: functional
Staphylococcus aureus [22] = assay: In vitro inhibitory activity in iso sensitest agar against Staphylococcus aureus strain ATCC 25923 in addition with 5%serum; type: functional
Staphylococcus hyicus [23] = assay: In vitro inhibitory activity in iso sensitest agar against Staphylococcus hyicus strain ATCC 9622 in addition with 0.5%blood; type: functional
[24] = test system: Staphylococcus intermedius; assay: In vitro inhibitory activity in iso sensitest agar against Staphylococcus intermedius strain ATCC 9503 in addition with 0.5%blood; type: functional
[25] = test system: Staphylococcus intermedius; assay: In vitro inhibitory activity in iso sensitest agar against Staphylococcus intermedius strain ATCC 9503 in addition with 5%serum; type: functional
Staphylococcus aureus [26] = assay: In vitro inhibitory activity in iso sensitest agar against Staphylococcus aureus strain ATCC 6538 in addition with 0.5%blood; type: functional
Staphylococcus aureus [27] = assay: In vitro inhibitory activity in iso sensitest agar against Staphylococcus aureus strain ATCC 6538 in addition with 5%serum
Staphylococcus aureus [28] = assay: In vitro inhibitory activity in iso sensitest agar against Staphylococcus aureus strain ATCC 6538 in addition with 0.5%serum
Staphylococcus aureus [29] = assay: In vitro inhibitory activity in iso sensitest agar against Staphylococcus aureus strain ATCC 6538 in addition with 5%blood
Staphylococcus hyicus [30] = assay: In vitrIn vitro inhibitory activity in iso sensitest agar against Staphylococcus hyicus strain ATCC 9621; type: functional
Staphylococcus hyicus [31] = assay: In vitro minimum inhibitory concentration in iso sensitest agar against Staphylococcus hyicus strain ATCC 9622; type: functional

Row | Structure (SMILES) | MIC (Staphylococcus aureus [1]) | MIC [2] | MIC (Staphylococcus aureus [3]) | MIC [4] | MIC (Staphylococcus hyicus [5]) | MIC (Staphylococcus aureus [6]) | MIC (Staphylococcus hyicus [7]) | MIC (Staphylococcus hyicus [10]) | MIC (Staphylococcus aureus [12]) | MIC (Staphylococcus hyicus [16]) | MIC (Staphylococcus aureus [17]) | MIC [20] | MIC (Staphylococcus aureus [22]) | MIC [25] | also measured
1 | CC(C)CC(=O)C(=O)NCCc1c[nH]c2ccccc12 | 0.25 mg/L (≈ 0.918 µM) | 1 mg/L (≈ 3.67 µM) | 0.125 mg/L (≈ 0.459 µM) | 2 mg/L (≈ 7.34 µM) | 0.03 mg/L (≈ 0.11 µM) | 0.25 mg/L (≈ 0.918 µM) | 0.25 mg/L (≈ 0.918 µM) |  |  |  |  |  |  |  | 
2 | CCC(C)C(=O)C(=O)NCCc1c[nH]c2ccccc12 (configuration not stated) | 0.125 mg/L (≈ 0.459 µM) | 2 mg/L (≈ 7.34 µM) | 0.25 mg/L (≈ 0.918 µM) | 8 mg/L (≈ 29.4 µM) | 0.5 mg/L (≈ 1.84 µM) | 0.125 mg/L (≈ 0.459 µM) | 1 mg/L (≈ 3.67 µM) | > 64 mg/L | 4 mg/L (≈ 14.7 µM) | > 64 mg/L | > 64 mg/L | 16 mg/L (≈ 58.7 µM) | 4 mg/L (≈ 14.7 µM) | 16 mg/L (≈ 58.7 µM) | MIC (Staphylococcus hyicus [8]): 0.25 mg/L (≈ 0.918 µM); MIC (Staphylococcus hyicus [9]): > 128 mg/L; MIC (Staphylococcus hyicus [11]): 1 mg/L (≈ 3.67 µM); MIC (Staphylococcus hyicus [13]): > 128 mg/L; MIC [14]: > 128 mg/L; MIC [15]: 8 mg/L (≈ 29.4 µM); MIC (Staphylococcus aureus [18]): > 128 mg/L; MIC (Staphylococcus hyicus [19]): > 128 mg/L; MIC (Staphylococcus aureus [21]): > 128 mg/L; MIC (Staphylococcus hyicus [23]): 0.125 mg/L (≈ 0.459 µM); MIC [24]: 1 mg/L (≈ 3.67 µM); MIC (Staphylococcus aureus [26]): > 128 mg/L
3 | CCC(C)C(=O)C(=O)NCCc1cn(C(C)C)c2ccccc12 (configuration not stated) | 0.03 mg/L (≈ 0.0954 µM) | 2 mg/L (≈ 6.36 µM) | 0.03 mg/L (≈ 0.0954 µM) | 4 mg/L (≈ 12.7 µM) | 0.5 mg/L (≈ 1.59 µM) | 0.03 mg/L (≈ 0.0954 µM) | 1 mg/L (≈ 3.18 µM) | > 32 mg/L | 8 mg/L (≈ 25.4 µM) | > 32 mg/L | > 32 mg/L | > 32 mg/L | 16 mg/L (≈ 50.9 µM) | > 32 mg/L | 
4 | CCC(C)C(=O)C(=O)NCCc1cn(Cc2ccccc2)c2ccccc12 (configuration not stated) | 0.125 mg/L (≈ 0.345 µM) | 2 mg/L (≈ 5.52 µM) | 0.125 mg/L (≈ 0.345 µM) | 8 mg/L (≈ 22.1 µM) | 1 mg/L (≈ 2.76 µM) | 0.125 mg/L (≈ 0.345 µM) | 1 mg/L (≈ 2.76 µM) | > 64 mg/L | 16 mg/L (≈ 44.1 µM) | > 64 mg/L | > 64 mg/L | > 64 mg/L | 16 mg/L (≈ 44.1 µM) | > 64 mg/L | 
5 | CCC(C)C(=O)C(=O)NCCc1cn(C)c2ccccc12 (configuration not stated) | 0.015 mg/L (≈ 0.0524 µM) | 0.5 mg/L (≈ 1.75 µM) | 0.015 mg/L (≈ 0.0524 µM) | 2 mg/L (≈ 6.98 µM) | 0.06 mg/L (≈ 0.21 µM) | 0.015 mg/L (≈ 0.0524 µM) | 0.06 mg/L (≈ 0.21 µM) | > 32 mg/L | 16 mg/L (≈ 55.9 µM) | > 32 mg/L | > 32 mg/L | 32 mg/L (≈ 112 µM) | 16 mg/L (≈ 55.9 µM) |  | MIC (Staphylococcus aureus [27]): > 32 mg/L; MIC (Staphylococcus aureus [28]): 2 mg/L (≈ 6.98 µM); MIC (Staphylococcus hyicus [8]): 0.03 mg/L (≈ 0.105 µM); MIC (Staphylococcus hyicus [9]): > 128 mg/L; MIC (Staphylococcus hyicus [11]): 0.125 mg/L (≈ 0.436 µM); MIC (Staphylococcus hyicus [13]): > 128 mg/L; MIC (Staphylococcus aureus [29]): > 128 mg/L; MIC (Staphylococcus aureus [18]): > 128 mg/L; MIC (Staphylococcus hyicus [19]): 0.25 mg/L (≈ 0.873 µM); MIC (Staphylococcus aureus [21]): 0.25 mg/L (≈ 0.873 µM); MIC (Staphylococcus hyicus [23]): 0.03 mg/L (≈ 0.105 µM); MIC [24]: 0.06 mg/L (≈ 0.21 µM); MIC (Staphylococcus aureus [26]): 0.06 mg/L (≈ 0.21 µM)
6 | CC(C)CC(=O)C(=O)NCCc1cn(-c2ccccc2)c2ccccc12 | 0.06 mg/L (≈ 0.172 µM) | 0.125 mg/L (≈ 0.359 µM) | 0.03 mg/L (≈ 0.0861 µM) | 1 mg/L (≈ 2.87 µM) |  | 0.06 mg/L (≈ 0.172 µM) |  | > 64 mg/L | > 64 mg/L | > 64 mg/L | > 64 mg/L | > 64 mg/L | > 64 mg/L | > 64 mg/L | MIC (Staphylococcus hyicus [30]): 0.06 mg/L (≈ 0.172 µM); MIC (Staphylococcus hyicus [31]): 0.015 mg/L (≈ 0.043 µM)
7 | CC(C)CC(=O)C(=O)NCCc1cn(C(C)C)c2ccccc12 | 0.06 mg/L (≈ 0.191 µM) | 1 mg/L (≈ 3.18 µM) | 0.125 mg/L (≈ 0.398 µM) | 2 mg/L (≈ 6.36 µM) | 0.25 mg/L (≈ 0.795 µM) | 0.25 mg/L (≈ 0.795 µM) | 0.06 mg/L (≈ 0.191 µM) | > 64 mg/L | 32 mg/L (≈ 102 µM) | > 64 mg/L | > 64 mg/L | 32 mg/L (≈ 102 µM) | 32 mg/L (≈ 102 µM) | 64 mg/L (≈ 204 µM) | 
8 | CC(C)CC(=O)C(=O)NCCc1cn(C)c2ccccc12 | 0.03 mg/L (≈ 0.105 µM) | 0.5 mg/L (≈ 1.75 µM) | 0.03 mg/L (≈ 0.105 µM) | 2 mg/L (≈ 6.98 µM) | 0.03 mg/L (≈ 0.105 µM) | 0.03 mg/L (≈ 0.105 µM) | 0.03 mg/L (≈ 0.105 µM) | > 64 mg/L | 16 mg/L (≈ 55.9 µM) | > 64 mg/L | > 64 mg/L | 16 mg/L (≈ 55.9 µM) | 16 mg/L (≈ 55.9 µM) | 32 mg/L (≈ 112 µM) | 
9 | CC(C)CC(=O)C(=O)NCCc1cn(Cc2ccccc2)c2ccccc12 | 2 mg/L (≈ 5.52 µM) | 2 mg/L (≈ 5.52 µM) | 1 mg/L (≈ 2.76 µM) | > 64 mg/L | 2 mg/L (≈ 5.52 µM) | 2 mg/L (≈ 5.52 µM) | 1 mg/L (≈ 2.76 µM) | > 64 mg/L | > 64 mg/L | > 64 mg/L | > 64 mg/L | > 64 mg/L | > 64 mg/L | > 64 mg/L | 
10 | CCC(C)C(=O)C(=O)NC(C)Cc1c[nH]c2ccccc12 (configuration not stated) |  | 0.5 mg/L (≈ 1.75 µM) | 1 mg/L (≈ 3.49 µM) |  | 0.5 mg/L (≈ 1.75 µM) |  | 1 mg/L (≈ 3.49 µM) |  |  |  |  |  |  |  | 
